Among the data in article PMC12040169 (PLOS Biology, 2025) are viability values, retold here.

In general, viability refers to a read-out of living cells in per cent, often relative to untreated cells.

The data set can be described thus: in vitro. As to conditions: human, hela cells, % viability.
Take `O=C(Nc1cc2ccccc2c(Br)n1)Nc1ccc(F)cc1C(F)(F)F` [CBK063278]: the viability at 28.5 h, 10 µM came to 96.3%.
For the compound `CCOC(=O)CNC(=O)Nc1cc2ccccc2c(Br)n1` [CBK063279], the viability at 28.5 h, 10 µM turned out to be 92.5%.
Next, `O=C(NCCc1ccccc1)Nc1cc2cccnc2c(Br)n1` [CBK063283]: 95.9%.
The figure for `COc1ccc(NC(=O)Nc2cc3cccnc3c(Br)n2)c(C)c1` [CBK063294] is 96.8%.
On to `O=C(Nc1cc2ccccc2c(Br)n1)c1ccc(C(F)(F)F)cc1[N+](=O)[O-]` [CBK063299], for which the viability at 28.5 h, 10 µM turned out to be 92.5%.
The figure for `Cc1ccc(S(=O)(=O)NCC(=O)Nc2cc3ccccc3c(Br)n2)cc1` [CBK063300] is 101%.
Regarding `O=C(Nc1cc2ccccc2c(Br)n1)C(F)(F)F` [CBK063301], the viability at 28.5 h, 10 µM is 82%.
As for `CC(=O)N[C@@H](Cc1c[nH]cn1)C(=O)Nc1cc2ccccc2c(Br)n1` [CBK063302], the viability at 28.5 h, 10 µM came to 91.3%.
Next, `Cc1ccc(S(=O)(=O)n2ccc3ccc(N4CCN(C)CC4)nc32)cc1` [CBK063327]: 84%; `Nc1ncc(-c2cccnc2)nc1NCc1ccccc1` [CBK063349]: 102%.
Next, `COc1cncc(-c2cnc(N)c(N3CCOCC3)n2)c1` [CBK063360]: 96.7%; `CN1CCN(c2nc(-c3ccoc3)cnc2N)CC1` [CBK063362]: 103%.
The figure for `COc1cc(-c2cnc(N)c(N3CCC(C(=O)O)CC3)n2)cc(OC)c1OC` [CBK063365] is 98.9%; for `Nc1ncc(-c2cccc3cccnc23)nc1N1CCOCC1` [CBK063383] it is 93.2%; for `COc1ccc(C(C)C)cc1-c1cnc(N)c(N2CCOCC2)n1` [CBK063384] it is 92.1%.
Turning to `Nc1ncc(-c2ccc(N3CCOCC3)cc2)nc1N1CCN(CCO)CC1` [CBK063394], the viability at 28.5 h, 10 µM was 95.8%.
For the compound `CCCC/C=C/c1cnc(N)c(N2CCOCC2)n1` [CBK063398], the viability at 28.5 h, 10 µM turned out to be 98.1%.
Turning to `COc1ccccc1-c1cnc(N)c(N2CCN(CCO)CC2)n1` [CBK063403], the viability at 28.5 h, 10 µM amounted to 96.1%.
For the compound `Nc1ncc(-c2cc(C(F)(F)F)cc(C(F)(F)F)c2)nc1N1CCN(CCO)CC1` [CBK063426], the viability at 28.5 h, 10 µM came out at 103%.
The figure for `Nc1ncc(-c2ccoc2)nc1N1CCN(CCO)CC1` [CBK063428] is 98.8%.
Next, `CC(=O)c1ccc(-c2cnc(N)c(N3CCN(C)CC3)n2)s1` [CBK063432]: 94.4%; `CN1CCN(c2nc(-c3cccc(F)c3)cnc2N)CC1` [CBK063433]: 100%; `Nc1ncc(-c2cccc(OC(F)(F)F)c2)nc1N1CCN(CCO)CC1` [CBK063435]: 94.9%.
The figure for `CC(=O)c1ccc(-c2cnc(N)c(N3CCC[C@@H]3CO)n2)s1` [CBK063438] is 97.9%.
Turning to `Nc1ncc(-c2ccco2)nc1N1CCC(C(=O)O)CC1` [CBK063440], the viability at 28.5 h, 10 µM came out at 87%.
Next, `Nc1ncc(-c2cccc3ncccc23)nc1N1CCC[C@@H]1CO` [CBK063441]: 105%; `Nc1ncc(-c2ccco2)nc1N1CCOCC1` [CBK063456]: 80.2%.
Next, `CN(C)CCN1CCN(c2nc(-c3ccc(S(C)(=O)=O)cc3)cnc2N)CC1` [CBK063457]: 100%; `CC(C)(CO)CNc1nc(-c2ccc3c(c2)OCO3)cnc1N` [CBK063459]: 105%; `CN(C)CCN1CCN(c2nc(-c3cccc4cccnc34)cnc2N)CC1` [CBK063464]: 94.3%.
`CC(=O)Nc1cccc(-c2cnc(N)c(N3CCN(CCN(C)C)CC3)n2)c1` [CBK063472]: the viability at 28.5 h, 10 µM was 91.1%.
The figure for `COCCNc1nc(-c2cccc(-c3ccccc3)c2)cnc1N` [CBK063474] is 99.5%; for `CC(C)(CO)CNc1nc(-c2cccnc2)cnc1N` [CBK063475] it is 100%.
Next, `CC(C)(CO)CNc1nc(-c2ccc(F)c(Cl)c2)cnc1N` [CBK063484]: 102%; `COc1cc(-c2cnc(N)c(N3CCN(CCN(C)C)CC3)n2)cc(OC)c1OC` [CBK063488]: 94.4%; `COc1ccc(-c2cnc(N)c(N3CCN(C)CC3)n2)c(OC)c1OC` [CBK063489]: 103%.
Regarding `CC(C)(CO)CNc1nc(-c2cc(C(F)(F)F)cc(C(F)(F)F)c2)cnc1N` [CBK063490], the viability at 28.5 h, 10 µM was 101%.
Next, `Nc1ncc(-c2cccc(-c3ccccc3)c2)nc1NCc1cccnc1` [CBK063491]: 93.5%; `CC(C)(CO)CNc1nc(-c2ccsc2)cnc1N` [CBK063499]: 103%.
As to `Nc1ncc(-c2cc(C(F)(F)F)cc(C(F)(F)F)c2)nc1N1CCC[C@@H]1CO` [CBK063501], the viability at 28.5 h, 10 µM was 93.3%.
On to `CN(C)CCN1CCN(c2nc(-c3cccnc3)cnc2N)CC1` [CBK063503], for which the viability at 28.5 h, 10 µM came out at 93.6%.
In the case of `COc1cncc(-c2cnc(N)c(NCc3cccnc3)n2)c1` [CBK063531], the viability at 28.5 h, 10 µM amounted to 110%.
The figure for `CN(C)CCN1CCN(c2nc(-c3cccc(C(N)=O)c3)cnc2N)CC1` [CBK063537] is 97.8%; for `Nc1ncc(-c2cc(C(F)(F)F)cc(C(F)(F)F)c2)nc1NCCCO` [CBK063546] it is 105%; for `COCCNc1nc(-c2cc(OC)c(OC)c(OC)c2)cnc1N` [CBK063559] it is 112%.
The figure for `CC(=O)Nc1cccc(-c2cnc(N)c(NCc3cccnc3)n2)c1` [CBK063562] is 103%.
Turning to `Nc1ncc(-c2cccc3ccccc23)nc1NCc1ccccc1` [CBK063565], the viability at 28.5 h, 10 µM worked out at 99%.
Turning to `Nc1ncc(-c2ccc(-c3ccccc3)cc2)nc1NC1CCCCC1` [CBK063572], the viability at 28.5 h, 10 µM amounted to 87.3%.
The figure for `COCCNc1nc(-c2ccccc2CO)cnc1N` [CBK063575] is 108%.
In the case of `CN(C)CCNc1nc(-c2ccncc2)cnc1N` [CBK063580], the viability at 28.5 h, 10 µM was 102%.
In the case of `COc1ccc(Nc2nc(-c3cccc(N)c3)cnc2N)cc1` [CBK063585], the viability at 28.5 h, 10 µM amounted to 95.9%.
Next, `CS(=O)(=O)c1ccc(-c2cnc(N)c(NCCCO)n2)cc1` [CBK063587]: 87.3%.
Next, `COCCNc1nc(-c2ccc(F)cc2)cnc1N` [CBK063591]: 116%; `COc1ccc(Nc2nc(-c3cccc(-c4ccccc4)c3)cnc2N)cc1` [CBK063593]: 89.8%; `Nc1ncc(-c2cccc(Br)c2)nc1NCCCO` [CBK063603]: 91.3%.
The figure for `Nc1ncc(-c2ccncc2)nc1NC1CCCCC1` [CBK063604] is 80.9%; for `COCCNc1nc(-c2cncc(OC)c2)cnc1N` [CBK063606] it is 103%; for `Nc1ncc(-c2cccc3cccnc23)nc1NC1CCCCC1` [CBK063613] it is 107%.
For the compound `COc1ccc(C(C)C)cc1-c1cnc(N)c(NC2CCCCC2)n1` [CBK063618], the viability at 28.5 h, 10 µM was found to be 108%.
The figure for `COc1ccc(C(C)C)cc1-c1cnc(N)c(NCCCN2CCOCC2)n1` [CBK063625] is 79.4%.
